Source: PubChem BioAssay AID179 (DTP/NCI, 2004)
Active and inactive are the calls of the source.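 How the source made its calls: active means compounds giving half or more protection of infected cells from virus-caused growth loss, again on retest; inactive means the rest.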

Tested on: CEM cells HIV-1 protection, formazan growth assay
Assay: NCI AIDS Antiviral Assay
Conditions: for IC50: measured here: growth of uninfected CEM cells
Summary of the method: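 Five concentrations of each compound were applied to infected and uninfected human CEM cells. Protection from HIV-1 was judged from growth measured with a soluble formazan assay.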

Row | SMILES | EC50 | IC50 | outcome
1 | CC(C)[C@H]1CO[C@@H]2O[C@H](C)CC(=O)N21 | > 1260 µM | > 1260 µM | –
2 | CCN(CC)CCC(=O)c1ccc(Oc2ccc(Cl)cc2)cc1 | > 200 µM | 30.2 µM | –
3 | O=C(NC(Cc1cnc[nH]1)C(=O)N1CCCC1)C1CCCC1 (stereo unspecified) | > 200 µM | – | –
4 | CCSc1[nH]c(Nc2nc(-c3ccccc3)n(-c3ccccc3)n2)c(C(N)=O)c1C(N)=O | – | – | inactive
5 | COc1ccc(/C=C\c2cc(OC)c(OC)c(OC)c2)cc1OP(=O)(O)O | > 35.5 µM | 0.0282 µM | –
6 | CCOC(=O)C1=C(c2ccccc2)C12N(Cc1ccccc1)C(=O)C2(c1ccccc1)c1ccccc1 (stereo unspecified) | > 200 µM | 11 µM | –
7 | COC(=O)c1cc(C)ccc1CC(Cc1cccc(C)c1)C(=O)OC (stereo unspecified) | > 200 µM | > 200 µM | –
8 | Cc1ccc2c(n1)C(N1CCOCC1)=CC(=O)C2=O | – | – | inactive
9 | Cc1ccc(NC(=O)c2c(NC(=O)CN3CCOCC3)c(C#N)c3n2CCC3)cc1 | > 200 µM | > 200 µM | –
10 | CCC1(c2cccc(C)c2)Oc2ccccc2-n2cccc2C1=O (stereo unspecified) | 0.537 µM | 126 µM | –
11 | COC1/C=C\C=C(/C)C(=O)NC2=CC(=O)C=C(C2=O)C(OC)C(C)CC(OC)C(OC)C(C)/C=C(/C)C1OC(N)=O (stereo unspecified) | > 63.1 µM | 0.407 µM | –
12 | CCC1(CC)C(=O)N(C(=O)c2ccc(Cl)cc2)N(C(=O)c2ccccc2Cl)C1=O | > 200 µM | 45.7 µM | –
13 | CC(=O)c1c(O)c(C)c(O)c2c1OC1=CC(=O)C(C(C)=O)C(=O)C12C (stereo unspecified) | > 200 µM | – | –
14 | COc1ccc(-c2nnc3c4ccccc4sn23)cc1 | > 25.7 µM | 22.4 µM | –
15 | COc1ccc(C(=O)C(CC2C(=O)CC(C)(C)C(C(=O)C(=O)Nc3c(C)cccc3C)C2=O)c2ccc(OC)cc2)cc1 (stereo unspecified) | > 427 µM | 372 µM | –
16 | O=S1(=O)OC(c2cc(Br)c(O)c(Br)c2)(c2cc(Br)c(O)c(Br)c2)c2ccccc21 | – | – | inactive
17 | c1ccc(N=c2snc3scc(-c4ccccc4)n23)cc1 | > 23.4 µM | > 23.4 µM | –
18 | O=C(O)C(=C\c1ccc2c(c1)OCO2)/C(=C/c1ccc2c(c1)OCO2)C(=O)O | – | – | inactive
19 | O=C1N(c2ccccc2)C2(O)C(=O)c3ccccc3C2(O)N1c1ccccc1 (stereo unspecified) | > 676 µM | 110 µM | –
20 | Nc1ccc(-c2nc3ccccc3s2)cc1S(=O)(=O)O | > 200 µM | 60.3 µM | –
21 | COC(=O)C1CCOC(C)N1C(=O)OC(C)(C)C (stereo unspecified) | > 200 µM | > 200 µM | –
22 | O=C(N[C@H]1c2ccsc2/C(=N/O)[C@H]1O)C(F)(F)F | > 200 µM | > 200 µM | –

Row | SMILES | EC50 | IC50 | outcome
23 | COC(=O)C1(SC)C2CCC3C2CCC31 (stereo unspecified) | > 200 µM | > 200 µM | –
24 | Cn1c(=O)c2[nH]c(N/N=N/c3nncs3)nc2n(C)c1=O | > 200 µM | > 200 µM | –
25 | O=S(=O)(O)SCCNCC(O)C(O)CNCCSS(=O)(=O)O (stereo unspecified) | > 617 µM | 120 µM | –
26 | COC(=O)C1CCC(=O)N1CN(C(C)=O)c1cccc(O)c1 (stereo unspecified) | > 200 µM | > 200 µM | –
27 | CN1CCN(Cc2nc3c(s2)CCc2sccc2-3)CC1 | > 200 µM | 57.5 µM | –
28 | COc1cc(-c2nccc3cc(OC)c(OC)cc23)ccc1O | – | – | inactive
29 | CC(C)(C)OC(=O)Cc1ccc2c(ccn2Cc2ccccc2)c1 | – | – | inactive
30 | CC(C)(C)[Si](C)(C)OC1C(n2ccc(=O)[nH]c2=O)OC(COC(c2ccccc2)(c2ccccc2)c2ccccc2)C1(CC#N)Sc1ccccc1 (stereo unspecified) | > 200 µM | > 200 µM | –
31 | COc1cc(C(C)(C)C)c(OC(=O)/C=C/C(=O)O/C=C/[N+](=O)[O-])c(C(C)(C)C)c1 | > 200 µM | 31.6 µM | –
32 | CC(=O)CC1(OC(=O)C2C(C=C(C)C)C2(C)C)C(=O)Nc2ccccc21 (stereo unspecified) | > 200 µM | 105 µM | –
33 | OC1CCCC2CCC[N-]C12.OC1CCCC2CCC[N-]C12.[Mn+2] (stereo unspecified) | – | – | inactive
34 | O=[n+]1c2c(n([O-])c3ccc4ccccc4c31)-c1cccc3cccc-2c13 | > 100 µM | > 100 µM | –
35 | CCCCOC(=O)C(O)Cc1ccoc1 (stereo unspecified) | > 200 µM | > 200 µM | –
36 | CCCC/C=C/C1Cc2ccccc2CN1S(=O)(=O)c1ccc(C)cc1 (stereo unspecified) | > 25.1 µM | 5.25 µM | –
37 | COc1ccc(NC(=O)C(/C=N\C(=S)NNC(C)=O)=C(\C)O)cc1 | > 200 µM | > 200 µM | –
38 | C[C@@]12CCC[C@H]1[C@@H]1CC=C3C[C@@H](S)CC[C@]3(C)[C@H]1CC2 | > 200 µM | 66.1 µM | –
39 | CN[C@H]1CCc2cc(OC)c(OC)c(OC)c2-c2ccc(OC)c(=O)cc21 | – | – | inactive
40 | C=C1CCC23CC(CC[C@@H]2[C@@]12C[C@@H](c1ccoc1)OC2=O)OC3=O (stereo partly specified) | > 79.4 µM | > 79.4 µM | –
41 | COc1ccc(-c2cc(C(=O)Nc3ccc(C)c(C)c3)nc(NC#N)n2)cc1 | > 339 µM | > 339 µM | –
42 | CC(C)(C)C1=CC(=Nc2ccc([N+](=O)[O-])cc2[N+](=O)[O-])C=C(C(C)(C)C)C1=O | > 13.5 µM | > 13.5 µM | –
43 | COc1ccccc1C1=C2C(=O)N(C)C(c3ccccc3OC)=C2C(=O)N1C | > 100 µM | > 100 µM | –
